Like-named read-outs stand apart in the source and are kept apart here.
Columns and labels:
[1] = biological target: METTL21A (Homo sapiens, UniProt Q8WXB1); experiment: Methyltransferase inhibition panel: METTL21A; type: biochemical
Protocol: (§1) The ability of ETP69 to inhibit methyltransferases was tested.

[2] = biological target: MLL3 Complex (Homo sapiens, UniProt Q8NEZ4); experiment: Methyltransferase inhibition panel: MLL3 Complex; type: biochemical
Protocol: as §1

[3] = biological target: T1, NSD2 (Homo sapiens, UniProt O96028); experiment: Methyltransferase inhibition panel: NSD2; type: biochemical
T1 sequence (O96028 1-1365): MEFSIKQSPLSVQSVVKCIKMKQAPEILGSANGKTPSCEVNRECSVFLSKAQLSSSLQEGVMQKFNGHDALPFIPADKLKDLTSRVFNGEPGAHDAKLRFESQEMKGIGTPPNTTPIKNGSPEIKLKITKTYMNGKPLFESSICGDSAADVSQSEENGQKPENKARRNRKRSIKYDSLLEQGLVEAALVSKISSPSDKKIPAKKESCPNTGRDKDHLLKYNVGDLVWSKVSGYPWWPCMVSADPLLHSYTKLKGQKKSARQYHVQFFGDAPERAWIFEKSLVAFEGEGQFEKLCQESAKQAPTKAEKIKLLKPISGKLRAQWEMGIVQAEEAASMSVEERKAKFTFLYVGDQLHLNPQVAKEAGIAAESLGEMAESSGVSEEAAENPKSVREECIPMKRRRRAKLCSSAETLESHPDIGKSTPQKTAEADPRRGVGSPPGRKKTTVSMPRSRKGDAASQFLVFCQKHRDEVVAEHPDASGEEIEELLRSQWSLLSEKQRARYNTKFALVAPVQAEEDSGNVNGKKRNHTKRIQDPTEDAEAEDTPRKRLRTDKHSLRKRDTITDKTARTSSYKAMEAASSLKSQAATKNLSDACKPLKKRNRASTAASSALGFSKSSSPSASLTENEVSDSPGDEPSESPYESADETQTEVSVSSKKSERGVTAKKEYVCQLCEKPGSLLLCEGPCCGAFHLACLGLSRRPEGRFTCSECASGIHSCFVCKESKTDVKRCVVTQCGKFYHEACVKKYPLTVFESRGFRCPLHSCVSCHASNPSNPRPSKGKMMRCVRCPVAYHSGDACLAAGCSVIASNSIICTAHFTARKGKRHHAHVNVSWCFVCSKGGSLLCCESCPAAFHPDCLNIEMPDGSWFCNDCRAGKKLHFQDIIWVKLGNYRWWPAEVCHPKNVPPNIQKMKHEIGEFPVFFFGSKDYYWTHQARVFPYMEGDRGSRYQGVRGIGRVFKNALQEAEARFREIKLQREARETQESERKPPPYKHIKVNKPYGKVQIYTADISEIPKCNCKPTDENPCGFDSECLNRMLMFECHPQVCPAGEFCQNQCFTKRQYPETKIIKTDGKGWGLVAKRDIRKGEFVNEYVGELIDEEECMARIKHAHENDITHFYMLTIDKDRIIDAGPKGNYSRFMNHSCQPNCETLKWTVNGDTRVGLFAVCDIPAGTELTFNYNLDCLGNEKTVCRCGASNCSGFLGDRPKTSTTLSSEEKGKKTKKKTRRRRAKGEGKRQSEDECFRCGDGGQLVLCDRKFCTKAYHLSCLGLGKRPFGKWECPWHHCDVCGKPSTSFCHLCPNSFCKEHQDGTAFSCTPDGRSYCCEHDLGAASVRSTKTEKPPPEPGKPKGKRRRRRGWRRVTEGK
Protocol: as §1

[4] = biological target: PRMT4 (Homo sapiens, UniProt Q86X55); experiment: Methyltransferase inhibition panel: PRMT4; type: biochemical
Protocol: as §1

[5] = biological target: T2, SUV39H1 (Homo sapiens, UniProt O43463); experiment: Methyltransferase inhibition panel: SUV39H1; type: biochemical
T2 sequence (O43463 1-412): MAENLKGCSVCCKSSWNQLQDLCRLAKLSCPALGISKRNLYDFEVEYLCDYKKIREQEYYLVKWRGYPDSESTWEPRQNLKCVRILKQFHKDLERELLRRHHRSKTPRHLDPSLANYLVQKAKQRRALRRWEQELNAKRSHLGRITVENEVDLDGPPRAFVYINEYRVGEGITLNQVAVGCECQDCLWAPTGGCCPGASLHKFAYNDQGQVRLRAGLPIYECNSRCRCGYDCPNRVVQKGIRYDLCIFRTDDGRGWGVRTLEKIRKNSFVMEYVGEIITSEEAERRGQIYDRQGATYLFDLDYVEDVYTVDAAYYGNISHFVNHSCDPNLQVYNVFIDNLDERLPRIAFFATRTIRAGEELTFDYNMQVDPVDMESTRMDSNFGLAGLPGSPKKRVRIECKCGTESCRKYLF
Protocol: as §1

[6] = system: PSD95; experiment: PSD95 irradiance in brain; design: species or system mice; details: mouse, in vivo
[7] = read-out: Enzyme % Activity (relative to DMSO controls) Data 1
[8] = read-out: Enzyme % Activity (relative to DMSO controls) Data 2

Chain of MLL3 Complex (Q15291 whole entry): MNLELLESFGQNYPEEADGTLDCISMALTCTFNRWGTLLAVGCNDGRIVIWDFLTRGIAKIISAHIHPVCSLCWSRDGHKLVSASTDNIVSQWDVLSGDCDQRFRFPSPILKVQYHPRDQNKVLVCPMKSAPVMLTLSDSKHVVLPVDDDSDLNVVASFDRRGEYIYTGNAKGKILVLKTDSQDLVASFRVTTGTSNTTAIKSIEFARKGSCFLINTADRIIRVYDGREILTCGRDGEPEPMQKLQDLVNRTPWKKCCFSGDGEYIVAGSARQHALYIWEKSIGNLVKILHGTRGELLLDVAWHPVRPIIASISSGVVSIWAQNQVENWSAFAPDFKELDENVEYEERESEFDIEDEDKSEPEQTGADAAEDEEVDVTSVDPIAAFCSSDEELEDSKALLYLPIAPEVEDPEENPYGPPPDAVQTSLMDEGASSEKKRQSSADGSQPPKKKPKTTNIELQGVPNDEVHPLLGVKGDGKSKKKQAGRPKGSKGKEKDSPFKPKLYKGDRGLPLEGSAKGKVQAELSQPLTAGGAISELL
Chain of MLL3 Complex (Q8NEZ4 4689-4911): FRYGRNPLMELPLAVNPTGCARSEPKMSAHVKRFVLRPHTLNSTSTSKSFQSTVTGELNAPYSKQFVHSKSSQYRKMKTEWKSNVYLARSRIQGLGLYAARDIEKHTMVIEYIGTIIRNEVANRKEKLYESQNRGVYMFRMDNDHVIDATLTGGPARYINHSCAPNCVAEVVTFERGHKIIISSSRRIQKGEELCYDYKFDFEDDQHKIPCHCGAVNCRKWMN
Chain of MLL3 Complex (Q9UBL3 96-628, further chain): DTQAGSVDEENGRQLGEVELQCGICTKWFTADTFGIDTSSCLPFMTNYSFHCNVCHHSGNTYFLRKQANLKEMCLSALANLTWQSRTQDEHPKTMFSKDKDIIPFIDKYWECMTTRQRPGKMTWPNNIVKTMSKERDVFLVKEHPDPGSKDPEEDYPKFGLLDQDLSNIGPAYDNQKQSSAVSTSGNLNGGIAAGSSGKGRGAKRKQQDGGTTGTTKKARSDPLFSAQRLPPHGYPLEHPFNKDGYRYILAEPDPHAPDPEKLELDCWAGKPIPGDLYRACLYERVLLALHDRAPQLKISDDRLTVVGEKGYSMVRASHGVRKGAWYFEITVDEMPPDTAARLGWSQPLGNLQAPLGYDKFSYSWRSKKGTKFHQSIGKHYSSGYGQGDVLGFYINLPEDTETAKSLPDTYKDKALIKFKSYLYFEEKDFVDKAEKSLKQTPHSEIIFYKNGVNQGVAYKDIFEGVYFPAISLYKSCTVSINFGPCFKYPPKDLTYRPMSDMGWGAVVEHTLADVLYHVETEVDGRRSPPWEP
Chain of MLL3 Complex (Q9C005 whole entry, further chain): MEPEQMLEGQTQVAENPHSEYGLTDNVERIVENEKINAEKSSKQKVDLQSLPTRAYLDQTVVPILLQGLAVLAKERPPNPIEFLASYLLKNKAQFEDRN
Chain of PRMT4 (Q86X55 whole entry): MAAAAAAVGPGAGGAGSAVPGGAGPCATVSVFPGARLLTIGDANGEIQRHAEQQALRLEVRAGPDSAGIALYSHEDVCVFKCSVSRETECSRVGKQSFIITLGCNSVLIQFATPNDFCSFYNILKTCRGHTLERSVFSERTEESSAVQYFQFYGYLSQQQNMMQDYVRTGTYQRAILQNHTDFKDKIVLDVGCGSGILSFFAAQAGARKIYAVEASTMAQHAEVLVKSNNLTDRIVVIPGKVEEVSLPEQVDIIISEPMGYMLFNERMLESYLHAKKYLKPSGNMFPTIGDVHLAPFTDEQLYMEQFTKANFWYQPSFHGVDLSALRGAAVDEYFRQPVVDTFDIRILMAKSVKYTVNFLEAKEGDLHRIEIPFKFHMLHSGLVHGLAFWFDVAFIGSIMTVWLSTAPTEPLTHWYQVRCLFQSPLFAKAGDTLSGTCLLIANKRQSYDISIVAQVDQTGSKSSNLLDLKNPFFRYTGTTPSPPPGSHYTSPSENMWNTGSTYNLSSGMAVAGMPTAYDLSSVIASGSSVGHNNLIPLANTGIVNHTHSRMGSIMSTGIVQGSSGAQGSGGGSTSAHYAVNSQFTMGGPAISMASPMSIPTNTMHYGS
Chain of METTL21A (Q8WXB1 whole entry): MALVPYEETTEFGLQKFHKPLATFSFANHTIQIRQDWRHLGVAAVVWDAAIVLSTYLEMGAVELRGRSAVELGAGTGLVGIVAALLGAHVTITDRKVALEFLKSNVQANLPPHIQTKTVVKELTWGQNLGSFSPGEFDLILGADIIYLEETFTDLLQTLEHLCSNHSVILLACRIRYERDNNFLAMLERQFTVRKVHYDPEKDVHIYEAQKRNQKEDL

`CN1C(=O)[C@@]23C[C@](C)(C#N)[C@H](c4ccc5c(c4)OCO5)N2C(=O)[C@]1(C)SS3` (racemic) [ETP69, Rac-(3S,6S,7S,8aS)-6-(benzo[d][1,3]dioxol-5-yl)-2,3,7-trimethyl-1,4-dioxohexahydro-6H-3,8a-epidithiopyrrolo[1,2-a]pyrazine-7-carbonitrile] was tested, and the remaining activity at 20 µM [1, 7] was 78.6%, the remaining activity at 20 µM [1, 8] was 78.5% and the remaining activity at 20 µM [2, 7] was 36.6%. The remaining activity at 20 µM [2, 8] was 32.6%, the “inhibition relative to DMSO controls” value ([2]; summary of Table 1) was “at least 7500” and the remaining activity at 20 µM [3, 7] was 20%. For the same compound, the remaining activity at 20 µM [3, 8] was 19.9%, the “inhibition relative to DMSO controls” value ([3]; summary of Table 1) was “at least 7500” and the remaining activity at 20 µM [4, 7] was 115%. For the same compound, the remaining activity at 20 µM [4, 8] was 114%, the remaining activity at 20 µM [5, 7] was 2.36% and the remaining activity at 20 µM [5, 8] was 2.53%. For the same compound, the “inhibition relative to DMSO controls” value ([5]; summary of Table 1) was “at least 7500” and the “expression of PSD95 irradiance” value [6] was “increased”.

Source: US20260207585A1, “METHODS AND COMPOSITIONS FOR THE TREATMENT OF PARKINSON'S DISEASE, HUNTINGTON'S DISEASE, AMYOTROPHIC LATERAL SCLEROSIS, AND LEARNING DISORDERS” (Cedars-Sinai Medical Center, priority 2022, published 2026)
